Measurements reported in patent publication US20250100963A1, “SULFONATED AND PHOSPHORYLATED AROMATIC MOLECULES” (Xavier University of Louisiana, priority 2023, published 2025).
Read-outs that look alike come from different tables or passages of the source.

Tests used:
CatG [1] = target: T1, CatG (Homo sapiens, UniProt P08311); experiment: Direct inhibition of human CatG, chromogenic substrate hydrolysis assay; assay type: biochemical
T1 sequence (P08311 21-244): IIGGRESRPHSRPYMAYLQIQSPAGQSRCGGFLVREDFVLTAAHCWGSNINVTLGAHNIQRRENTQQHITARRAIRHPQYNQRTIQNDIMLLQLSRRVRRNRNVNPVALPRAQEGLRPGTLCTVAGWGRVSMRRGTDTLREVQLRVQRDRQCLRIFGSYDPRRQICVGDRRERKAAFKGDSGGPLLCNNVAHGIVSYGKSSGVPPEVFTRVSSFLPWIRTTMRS
Procedure: The method further comprises inhibition of proteases. […] To each well of a 96-well microplate containing 88 μl of 20 mM tris buffer containing 100 mM NaCl, 2.5 mM CaCl2, 0.1% PEG 8000 and 0.05% tween 80 was added 3 μl of CatG (final concentration of 30 nM), and 5 μl of H2O or potential inhibitor (final concentration of 0-100 μM). Following a 5-min incubation, 3 μl of CatG substrate was added (final concentration 750 μM) and the residual CatG activity was obtained from the initial rate of increase of absorbance at 405 nm. The relative residual activity of CatG at each of the inhibitor concentrations was obtained from the ratio of CatG activity in the presence and absence of the inhibitor. Logistic Equation (1) was used to plot the dose-dependence curve to obtain the IC50 (potency) and efficacy of CatG inhibition. Here, Y is the ratio of residual CatG activity in the presence of inhibitor to that in its absence, YO and YM are the minimum and maximum values of fractional residual CatG activity, respectively, IC50 is the concentration of the inhibitor that results in 50% inhibition of CatG activity and HS is the Hill slope.
To each well of a 96-well microplate containing 88 μl of 20 mM tris buffer containing 100 mM NaCl, 2.5 mM CaCl2, 0.1% PEG 8000 and 0.05% tween 80 was added 3 μl of CatG (final concentration of 30 nM), and 5 μl of H2O or potential inhibitor (final concentration of 0-100 μM). Following a 5-min incubation, 3 μl of CatG substrate was added (final concentration 750 μM) and the residual CatG activity was obtained from the initial rate of increase of absorbance at 405 nm. The relative residual activity of CatG at each of the inhibitor concentrations was obtained from the ratio of CatG activity in the presence and absence of the inhibitor. Logistic Equation (1) was used to plot the dose-dependence curve to obtain the IC50 (potency) and efficacy of CatG inhibition. Here, Y is the ratio of residual CatG activity in the presence of inhibitor to that in its absence, YO and YM are the minimum and maximum values of fractional residual CatG activity, respectively, IC50 is the concentration of the inhibitor that results in 50% inhibition of CatG activity and HS is the Hill slope.

Thrombin (human FIIa) = Thrombin (human FIIa) (Homo sapiens, UniProt P00734); experiment: Direct inhibition of thrombin, chromogenic substrate hydrolysis assay; assay type: biochemical; conditions: Tris-HCl buffer; estimated from the highest concentration used
Procedure: (§1) Direct inhibitions of thrombin (FIIa), factor VIIa (FVIIa), factor IXa (FIXa), factor Xa (FXa), FXIa, factor XIIa (FXIIa), trypsin and chymotrypsin were evaluated using the corresponding chromogenic substrate hydrolysis assays as previously reported. Briefly, to each well of a 96-well microplate containing 85-185 μl of […] Tris buffer containing 100 mM NaCl, 2.5 mM CaCl2, 0.1% PEG 8000, and 0.05% tween 80 at 25 (thrombin) or 37° C. (FVIIa, FIXa, FXa, FXIa, FXIIa, chymotrypsin, and trypsin) were added 5 μl of enzyme (thrombin, FVIIa, FIXa, FXa, FXIa, FXIIa, chymotrypsin, and trypsin) and 5 μl of the inhibitor. Following an incubation period of 5 min, the appropriate chromogenic substrates (Spectrozyme TH, Spectrozyme FIXa, Spectrozyme FXa, S-2366, Spectrozyme FXIIa and S-2222) were added and the residual enzyme activity was measured from the initial rate of increase in absorbance at 405 nm. Relative residual enzyme activity as a function of the inhibitor concentration was fitted using Logistic Equation (1) to obtain the IC50 (potency), A Y % (efficacy) of enzyme inhibition, and HS (Hill slope). […]

FXa = target: T2, FXa (Homo sapiens, UniProt P00742); experiment: Direct inhibition of FXa, chromogenic substrate hydrolysis assay; assay type: biochemical; conditions: Tris-HCl buffer
T2 construct: factor Xa (FXa), FXIa, factor XIIa (FXIIa), trypsin and chymotrypsin
T2 sequence (P00742 235-488): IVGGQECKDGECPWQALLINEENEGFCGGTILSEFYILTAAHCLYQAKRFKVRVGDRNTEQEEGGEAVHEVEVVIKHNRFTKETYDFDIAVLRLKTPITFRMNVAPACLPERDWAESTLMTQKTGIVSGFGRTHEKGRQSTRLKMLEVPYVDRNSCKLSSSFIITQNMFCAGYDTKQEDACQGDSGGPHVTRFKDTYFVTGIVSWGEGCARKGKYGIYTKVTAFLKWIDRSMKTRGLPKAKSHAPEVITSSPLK
T2 sequence (P00742 41-179 partner): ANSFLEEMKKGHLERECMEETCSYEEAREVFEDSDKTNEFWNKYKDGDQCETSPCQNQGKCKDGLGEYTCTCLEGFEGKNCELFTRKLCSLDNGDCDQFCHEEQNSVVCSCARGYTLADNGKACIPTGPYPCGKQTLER
Procedure: as §1

Human FXIa = Human FXIa (Homo sapiens, UniProt P03951); experiment: Direct inhibition of FXIa, chromogenic substrate hydrolysis assay; assay type: biochemical; conditions: Tris-HCl buffer
Chain of Human FXIa (P03951 388-625): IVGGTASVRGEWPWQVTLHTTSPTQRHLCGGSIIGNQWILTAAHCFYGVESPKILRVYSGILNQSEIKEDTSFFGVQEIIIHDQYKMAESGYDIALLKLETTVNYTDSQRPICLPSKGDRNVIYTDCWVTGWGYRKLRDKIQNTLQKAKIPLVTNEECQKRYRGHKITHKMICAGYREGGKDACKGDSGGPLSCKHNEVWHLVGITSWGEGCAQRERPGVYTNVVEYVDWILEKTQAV
Chain of Human FXIa (P03951 19-387 partner): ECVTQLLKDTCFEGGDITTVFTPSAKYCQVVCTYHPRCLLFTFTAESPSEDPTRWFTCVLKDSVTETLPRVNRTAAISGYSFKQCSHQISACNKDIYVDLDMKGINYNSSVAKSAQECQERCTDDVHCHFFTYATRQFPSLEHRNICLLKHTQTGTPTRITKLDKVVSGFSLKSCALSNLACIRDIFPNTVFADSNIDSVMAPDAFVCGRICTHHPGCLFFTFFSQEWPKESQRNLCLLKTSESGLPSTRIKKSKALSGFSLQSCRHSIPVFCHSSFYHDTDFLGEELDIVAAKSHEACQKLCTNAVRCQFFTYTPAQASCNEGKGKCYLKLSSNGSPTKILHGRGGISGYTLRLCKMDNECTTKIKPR
Procedure: Direct inhibitions of thrombin (FIIa), factor VIIa (FVIIa), factor IXa (FIXa), factor Xa (FXa), FXIa, factor XIIa (FXIIa), trypsin and chymotrypsin were evaluated using the corresponding chromogenic substrate hydrolysis assays as previously reported. Briefly, to each well of a 96-well microplate containing 85-185 μl of […] Tris buffer containing 100 mM NaCl, 2.5 mM CaCl2, 0.1% PEG 8000, and 0.05% tween 80 at 25 (thrombin) or 37° C. (FVIIa, FIXa, FXa, FXIa, FXIIa, chymotrypsin, and trypsin) were added 5 μl of enzyme (thrombin, FVIIa, FIXa, FXa, FXIa, FXIIa, chymotrypsin, and trypsin) and 5 μl of the inhibitor. Following an incubation period of 5 min, the appropriate chromogenic substrates (Spectrozyme TH, Spectrozyme FIXa, Spectrozyme FXa, S-2366, Spectrozyme FXIIa and S-2222) were added and the residual enzyme activity was measured from the initial rate of increase in absorbance at 405 nm. Relative residual enzyme activity as a function of the inhibitor concentration was fitted using Logistic Equation (1) to obtain the IC50 (potency), A Y % (efficacy) of enzyme inhibition, and HS (Hill slope). The concentrations of enzymes and substrates in microplate cells were: 6 nM and 50 μM for thrombin; 1.09 nM and 125 μM for FXa; 5 nM and 125 μM for FXIIa; 89 nM and 850 μM for FIXa; 8 nM and 1000 µM for FVIIa (along with 40 nM recombinant tissue factor); 72.5 ng/ml and 80 μM for bovine trypsin; and 500 ng/ml and 240 μM for bovine chymotrypsin.

CatG [2] = target: T1, CatG; conditions: reported; read-out: estimated Ki, allosteric inhibitor; cited from earlier work
[3] = Tris buffer pH 7.4, 37° C., 100 mM NaCl, read-out: IC50

## O=C(Nc1cc(C(=O)Nc2ccccc2S(=O)(=O)O)cc(C(=O)Nc2ccccc2S(=O)(=O)O)c1)Nc1cc(C(=O)Nc2ccccc2S(=O)(=O)O)cc(C(=O)Nc2ccccc2S(=O)(=O)O)c1 [2,2′,2″,2″′-((5,5′-(carbonylbis(azanediyl))bis(isophthaloyl))tetrakis(azanediyl))tetrabenzenesulfonic acid]
CatG [1]; Table 6, read-out: CATG IC50
  IC50: 1 to 5 µM

## O=C(Nc1cc(C(=O)Nc2cc(S(=O)(=O)O)ccc2S(=O)(=O)O)cc(C(=O)Nc2cc(S(=O)(=O)O)ccc2S(=O)(=O)O)c1)Nc1cc(C(=O)Nc2cc(S(=O)(=O)O)ccc2S(=O)(=O)O)cc(C(=O)Nc2cc(S(=O)(=O)O)ccc2S(=O)(=O)O)c1 [2,2′,2″,2″′-((5,5′-(carbonylbis(azanediyl))bis(isophthaloyl))tetrakis(azanediyl))tetrakis(benzene-1,4-disulfonic acid)]
CatG [1]; Table 6, read-out: CATG IC50
  IC50: 1 to 5 µM

## O=C(Nc1cc(C(=O)Nc2ccc(S(=O)(=O)O)cc2)cc(C(=O)Nc2ccc(S(=O)(=O)O)cc2S(=O)(=O)O)c1)Nc1cc(C(=O)Nc2ccc(S(=O)(=O)O)cc2)cc(C(=O)Nc2ccc(S(=O)(=O)O)cc2S(=O)(=O)O)c1 [4,4′-((3,3′-(carbonylbis(azanediyl))bis(5-((4-sulfophenyl)carbamoyl)benzoyl))bis(azanediyl))bis(benzene-1,3-disulfonic acid)]
CatG [1]; Table 6, read-out: CATG IC50
  IC50: 0.5 to 1 µM

## O=C(Nc1cccc(C(=O)Nc2cccc(C(=O)Nc3cccc(P(=O)(O)O)c3)c2)c1)Nc1cccc(C(=O)Nc2cccc(C(=O)Nc3cccc(P(=O)(O)O)c3)c2)c1 [(((3,3′-((3,3′-(carbonylbis(azanediyl))bis(benzoyl))bis(azanediyl))bis(benzoyl))bis(azanediyl))bis(3,1-phenylene))bis(phosphonic acid)]
CatG [1]; Table 6, read-out: CATG IC50
  IC50: 1 to 10 µM

## Cc1ccc(C(=O)Nc2ccc(CP(=O)(O)O)cc2)cc1NC(=O)c1cccc(NC(=O)Nc2cccc(C(=O)Nc3cc(C(=O)Nc4ccc(CP(=O)(O)O)cc4)ccc3C)c2)c1 [((((3,3′-((3,3′-(carbonylbis(azanediyl))bis(benzoyl))bis(azanediyl))bis(4-methylbenzoyl))bis(azanediyl))bis(4,1-phenylene))bis(methylene))bis(phosphonic acid)]
CatG [1]; Table 6, read-out: CATG IC50
  IC50: 10 to 100 µM

## Cc1ccc(C(=O)Nc2ccc(CP(=O)(O)O)cc2CP(=O)(O)O)cc1NC(=O)Nc1cc(C(=O)Nc2ccc(CP(=O)(O)O)cc2CP(=O)(O)O)ccc1C [((((3,3′-(carbonylbis(azanediyl))bis(4-methylbenzoyl))bis(azanediyl))bis(4,1-phenylene))bis(methylene))bis(phosphonic acid)]
CatG [1]; Table 6, read-out: CATG IC50
  IC50: 10 to 100 µM

## O=C(Nc1cccc(C(=O)Nc2ccc(CP(=O)(O)O)cc2CP(=O)(O)O)c1)Nc1cccc(C(=O)Nc2ccc(CP(=O)(O)O)cc2CP(=O)(O)O)c1 [((((3,3′-(carbonylbis(azanediyl))bis(4-methylbenzoyl))bis(azanediyl))bis(benzene-4,1,3-triyl))tetrakis(methylene))tetrakis(phosphonic acid)]
CatG [1]; Table 6, read-out: CATG IC50
  IC50: 1 to 10 µM

## O=C(Nc1cc(C(=O)Nc2ccc(S(=O)(=O)O)cc2)cc(C(=O)Nc2ccc(S(=O)(=O)O)cc2)c1)Nc1cc(C(=O)Nc2ccc(S(=O)(=O)O)cc2)cc(C(=O)Nc2ccc(S(=O)(=O)O)cc2)c1 [Formula I, 4,4′,4″,4″-((5,5′-(carbonylbis(azanediyl))bis(isophthaloyl))tetrakis(azanediyl))tetrabenzenesulfonic acid]
Thrombin (human FIIa)
  IC50: > 100 µM
CatG [1]; Table 6, read-out: CATG IC50
  IC50: 0.83 µM
CatG [1]; Tris buffer pH 7.4, 37° C.
  HS (Hill slope): 1.7 ± 0.4
  ΔY (efficacy): 91.9 ± 6.8%
CatG [1]; [3]
  IC50: 0.083 ± 0.14 µM
FXa
  IC50: > 100 µM
Human FXIa
  HS (Hill slope): 1.2 ± 0.2
  IC50: 29.5 ± 4.6 µM
  ΔY (efficacy): 90.9 ± 5.8%

## Cc1ccc(C(=O)Nc2ccc(CP(=O)(O)O)cc2CP(=O)(O)O)cc1NC(=O)c1cccc(NC(=O)Nc2cccc(C(=O)Nc3cc(C(=O)Nc4ccc(CP(=O)(O)O)cc4CP(=O)(O)O)ccc3C)c2)c1 [Formula III, ((((3,3′-((3,3′-(carbonylbis(azanediyl))bis(benzoyl))bis(azanediyl))bis(4-methylbenzoyl))bis(azanediyl))bis(benzene-4,1,3-triyl))tetrakis(methylene))tetrakis(phosphonic acid)]
Thrombin (human FIIa)
  IC50: > 500 µM
CatG [1]; Table 6, read-out: CATG IC50
  IC50: 3.1 µM
CatG [1]; Tris buffer pH 7.4, 37° C.
  HS (Hill slope): 1.1 ± 0.1
  ΔY (efficacy): 87.5 ± 1.8%
CatG [1]; [3]
  IC50: 3.1 µM
FXa
  IC50: > 100 µM
Human FXIa
  HS (Hill slope): 1.9 ± 0.5
  ΔY (efficacy): 68.0 ± 3.7%

## heparin
CatG [2]
  Ki: < 25 pM
